In patent US9145436B2 (priority 2010, dated 2015):
Like-named read-outs stand apart in the source and are kept apart here.

How the values were obtained:
[1] = test system: E. coli; assay: Antibiotic dilution assay, E. coli; assay type: cell-based; details: liquid medium, OD600, read-out: Bacterial IC 50 (μM) E. Coli
Protocol: (§1) The antibiotic activity of the compounds was determined via antibiotic dilution assay. After filling 100 μl growth medium into all the wells of a 96 well plate, the compounds were diluted from 1 mM to 0.010 μM. The growth control wells contained growth medium instead of inhibitory agents. The inhibitory control contained Compound 3 (200 μM). Suspensions of E. coli and B. pumilus in growth medium with an approximate OD600 of 0.03-0.04 were added to the diluted compounds, incubated for 6-8 hours on the shaker at 750 rpm and 37° C. until the growth control had reached an OD600 of about 0.6-0.8. The OD600 was then determined on a standard plate reader.
(§2) Various analogs were compared in vitro to determine key properties. Antibacterial effect was determined in representative Gram negative (E. coli) and positive (S. aureus) organisms using the method of example 16. Effects on lung inflammation were compared using the method of example 32. BALF (Bronchoalveolar Lavage Fluid) TNFa levels are determined by ELISA. In vitro toxicity is determined by growth inhibition of Jurkat lymphocytes in DMEM medium as determined using Alamar Blue reaction. Effects on cytokine production are determined in J774 cells stimulated with either LPS (0.1 μg/mL) or medium from J774 cells stimulated for 24 h with 0.2 μg/mL LPS. Cytokines are determined by ELISA and expressed as % DMSO control at 50 μM inhibitor concentration.

[2] = test system: BALF TNFa; assay: Airway inflammation by inhaled LPS, BALF TNFa by ELISA; assay type: in vivo, DBA or Swiss female mice; details: 30 minutes prior to LPS challenge
Protocol: as §2
Airway inflammation is induced by inhalation of solutions containing bacterial LPS. 10 μg per mouse is provided intranasally in phosphate buffered saline. 90 minutes after challenge, bronchioalveolar lavage fluid is recovered from the lung using PBS (0.5 mL) injected into the lung via the trachea and frozen prior to analysis for cytokines by ELISA. TNFa is the primary cytokine measured. Compound 2 and other test substances are dissolved in 0.02% citric acid in water, and the pH of the resulting solution is set to 6.2. Compounds are administered 30 minutes prior to challenge either as 25 μL solutions for intranasal use, or as 125 μL volumes for p.o. application in 25 g DBA or Swiss female mice. The results of said interventions include reduction of lung and/or plasma cytokines. Example data are recorded in FIG. 13.

[3] = test system: IL-10 production in J774 cells; assay: Cytokine production in stimulated J774 cells, IL-10 (ELISA); assay type: cell-based; details: Normal (LPS 0.1 μg/mL)
Protocol: as §2

[4] = test system: TNFa production in J774 cells; assay: Cytokine production in stimulated J774 cells, TNFa (ELISA); assay type: cell-based; details: Normal (LPS 0.1 μg/mL)
Protocol: as §2

[5] = test system: IL-12 production in J774 cells; assay: Cytokine production in stimulated J774 cells, IL-12 (ELISA); assay type: cell-based; details: Normal (LPS 0.1 μg/mL)
Protocol: as §2

[6] = test system: Jurkat lymphocytes; assay: In vitro toxicity: growth inhibition of Jurkat lymphocytes, Alamar Blue; assay type: cell-based; details: DMEM medium
Protocol: as §2

[7] = test system: S. aureus; assay: Antibiotic dilution assay, S. aureus; assay type: cell-based; details: liquid medium, OD600, read-out: Bacterial IC 50 (μM) S. Aureus
Protocol: as §1, §2

[8] = test system: GM_CSF production in J774 cells; assay: Cytokine production in stimulated J774 cells, GM-CSF (ELISA); assay type: cell-based; details: Cond. (medium from J774 cells stimulated 24 h with 0.2 μg/mL LPS)
Protocol: as §2

[9] = test system: Jurkat; assay: Cytotoxicity of the substances (TC50), Jurkat; assay type: cell-based; details: Jurkat cells
[10] = test system: HeLa; assay: Cytotoxicity of the substances (TC50), HeLa; assay type: cell-based; details: HeLa cells

Row | SMILES | IC50 ([1]; Escherichia coli) | BALF TNFa (% Vehicle) 20 μmol/kg i.n. [2] | Cytokine production in J774 cells as % DMSO control, IL-10 Normal 50 μM [3] | Cytokine production in J774 cells as % DMSO control, TNFa Normal 50 μM [4] | Cytokine production in J774 cells as % DMSO control, IL-12 Normal 50 μM [5] | Jurkat Cell toxicity Normal growth limit [6] | IC50 ([7]; Staphylococcus aureus) | Cytokine production in J774 cells as % DMSO control, GM_CSF Cond. 50 μM [8] | IC50 [1] | IC50 [7] | BALF TNFa (% Vehicle) 200 μmol/kg p.o. [2] | TC50 Jurkat [9] | TC50 HeLa [10]
1 | CC[C@H]1OC(=O)[C@H](C)C(O)[C@H](C)[C@@H](O[C@@H]2O[C@H](C)CC([N+](C)(C)[O-])[C@H]2O)[C@](C)(O)C[C@@H](C)C[N+](C)([O-])[C@H](C)[C@@H](O)[C@]1(C)O (stereo partly shown) [Compound 5b] | 1090 µM | 56 % Vehicle | 116 % DMSO control | 88 % DMSO control | 67 % DMSO control | 100 µM | 1920 µM | 81 % DMSO control | – | – | – | – | –
2 | CC[C@H]1OC(=O)[C@H](C)C(=O)[C@H](C)[C@@H](O[C@@H]2O[C@H](C)CC(N(C)C)[C@H]2O)[C@](C)(O)C[C@@H](C)CN(C)[C@H](C)[C@H]2OC(=O)O[C@@]21C (stereo partly shown) [Example 10] | 1350 µM | 99 % Vehicle | 118 % DMSO control | 72 % DMSO control | 40 % DMSO control | 100 µM | 1600 µM | 14 % DMSO control | – | – | – | – | –
3 | CC[C@H]1OC(=O)[C@H](C)C(O)[C@H](C)[C@@H](O[C@@H]2O[C@H](C)C[C@H](N(C)C)[C@H]2O)/C(C)=C/[C@@H](C)CN(C)[C@H](C)[C@@H](O)[C@]1(C)O (stereo partly shown) [Compound 13] | – | 78 % Vehicle | 98 % DMSO control | 99 % DMSO control | 47 % DMSO control | 100 µM | – | 193 % DMSO control | 2140 µM | 1570 µM | – | – | –
4 | CC[C@H]1OC(=O)[C@H](C)C(=O)[C@H](C)[C@@H](O[C@@H]2O[C@H](C)CC(N(C)C)[C@H]2OC(C)=O)[C@](C)(O)C[C@@H](C)CN(C)[C@H](C)[C@@H](O)[C@]1(C)O (stereo partly shown) [Compound 8] | 1270 µM | 81 % Vehicle | 134 % DMSO control | 85 % DMSO control | 45 % DMSO control | 100 µM | 1970 µM | 83 % DMSO control | – | – | 67 % Vehicle | – | –
5 | CCOC(=O)CC1(C)C(=O)O[C@H](CC)[C@@](C)(O)[C@H](O)[C@@H](C)N(C)C[C@H](C)C[C@]2(C)O[C@@]1(O)[C@H](C)[C@H]2O[C@@H]1O[C@H](C)CC(N(C)C)[C@H]1O (stereo partly shown) [Compound 5, [14-(4-Dimethylamino-3-hydroxy-6-methyl-tetrahydro-pyran-2-yloxy)-5-ethyl-1,6,7-trihydroxy-2,6,8,9,11,13,15-heptamethyl-3-oxo-4,16-dioxa-9-aza-bicyclo[11.2.1]hexadec-2-yl]-acetic acid ethyl ester] | 980 µM | 90 % Vehicle | 95 % DMSO control | 39 % DMSO control | 7 % DMSO control | 100 µM | 2600 µM | 114 % DMSO control | – | – | – | > 100 µM | –
6 | CC[C@H]1OC(=O)[C@H](C)[C@@]2(O)O[C@@](C)(C[C@@H](C)CN[C@H](C)[C@@H](O)[C@]1(C)O)[C@H](O[C@@H]1O[C@H](C)C[C@H](NC)[C@H]1O)[C@H]2C [Compound 14] | 1320 µM | 62 % Vehicle | 95 % DMSO control | 93 % DMSO control | 143 % DMSO control | 100 µM | 1950 µM | 153 % DMSO control | – | – | 95 % Vehicle | – | –
7 | CCC1OC(=O)C(C)C(=O)C(C)C(OC2OC(C)CC(NC)C2O)C(C)(O)CC(C)CN(C)C(C)C(O)C1(C)O (stereo not shown) [Compound 11] | – | 80 % Vehicle | 96 % DMSO control | 86 % DMSO control | 53 % DMSO control | 100 µM | – | 174 % DMSO control | 1090 µM | 2340 µM | 98 % Vehicle | – | –
8 | CCC1OC(=O)C(C)C2(O)OC(C)(CC(C)CN(C)C(C)C(=O)C1(C)O)C(OC1OC(C)CC(N(C)C)C1O)C2C (stereo not shown) [Compound 4, 14-(4-Dimethylamino-3-hydroxy-6-methyl-tetrahydro-pyran-2-yloxy)-5-ethyl-1,6-dihydroxy-2,6,8,9,11,13,15-heptamethyl-4,16-dioxa-9-aza-bicyclo[11.2.1]hexadecane-3,7-dione] | – | – | – | – | – | – | – | – | – | – | – | > 100 µM | > 100 µM
9 | CCCCCCCCC=CCCCCCCCC(=O)OC1C(OC2C(C)C(=O)C(C)C(=O)OC(CC)C(C)(O)C(OC(=O)CCCCCCCC=CCCCCCCCC)C(C)N(C)CC(C)CC2(C)O)OC(C)CC1N(C)C (stereo not shown) [Compound 9b] | – | 112 % Vehicle | 123 % DMSO control | 89 % DMSO control | 76 % DMSO control | 100 µM | – | 53 % DMSO control | 1950 µM | 2500 µM | – | – | –
